Patent publication US5480645A, “Hydroxyamines N-acyl derivatives having scavenger activity and useful in acute and chronic pathologies associated with peroxidation and inflammation phenomena” (LifeGroup S.p.A., priority 1992, dated 1996)

Key:
Solubility = type: physicochemical
[1] = test system: rat liver microsomes (membrane phospholipid peroxidation); assay: Antiperoxidative activity on rat liver microsomes, cumene hydroperoxide induced peroxidation (MDA formation); type: biochemical; details: for peroxidation inhibition / MDA: 0.5 mM cumene hydroperoxyde, Table 3; for MDA: control 12.8
Experimental: b) 20 mM Hepes-Tris buffer pH=7.4, 0.5 mM cumene hydroperoxide in the presence or in the absence of the compounds to be tested. […] Subsequently the incubation is carried out for 15' at 90° C. in order to allow the development of the coloured adduct.
(§1) A common oxidation product, malonyldialdehyde (MDA), to the two oxidant systems described in (a) and in (b), is measured.
The tested compounds are solubilized in the culture medium up to the desired concentrations (see tables 1-3).
As peroxidant agent 0.5 mM cumene hydroperoxyde is used. As oxidation index the formation of malonyldialdehyde (MDA) is measured (nmoles/mg protein).

C6 glioma cells = assay: Protection against 5 mM glutamate cytotoxicity in glioma C6 cultures; details: Rattus norvegicus, C6 glioma, 24 h, read-out: % Cell survival
[2] = test system: rat cerebellar granular cells; assay: Protection against glutamate neurotoxicity in rat cerebellar granular cell cultures; type: cell-based
Experimental: Primary cerebellar granular cell cultures are prepared from 8 days old Sprague-Dawly rats. Neurons are grown on 35 mm plates for 7-8 days. […] Glial cells proliferation is prevented by cytosine arabinose-furanoside.
Cells are washed in Locke solution free from Mg^2+ then replated in the conditionned culture medium.
The solution is diluted serially up to 10, 20 and 50 μM. The compounds at the desired concentrations are added to the cells at 37 ° C.; after 15' 50 μM glutamate free from Mg^2+ is added For 15 minutes at 22 ° C.
The cells are then washed 3 times with Locke solution, then added to the original culture medium and maintained at 37 ° C. in 5 % CO2 for 24 hours.
The cellular survival is measured by using a fluorescence microscope.

[3] = test system: rat liver microsomes (membrane phospholipid peroxidation); assay: Antiperoxidative activity on rat liver microsomes, NADPH/Fe+2/ADP induced peroxidation (MDA formation); type: biochemical; details: for peroxidation inhibition / MDA: NADPH/Fe+2/ATP, Table 1-A; for MDA: control 42.5
Experimental: Before the final resuspension mitochondria ape washed with 0.125M KCl containing 15 mM Hepes/10 mM tris at pH=7.4. Rat liver microsomes are prepared as described by Ernster and Nordenbrand (Ernster, Nordenbrand K. Methods Enzymol. 1967, 10:574-80). […]
b) 20 mM Hepes-Tris buffer pH=7.4, 0.5 mM cumene hydroperoxide in the presence or in the absence of the compounds to be tested. The trials after incubation are interrupted with 1 ml 35% TCA which 30 mg BHT and 1 ml 1% TBA (thiobarbituric acid) have been added to. Subsequently the incubation is carried out for 15' at 90° C. in order to allow the development of the coloured adduct.
as §1
The formed MDA is evaluated by spectrophotometry at 532 nm and calculated by using a molar extinction coefficient of 156.000 (Buege J. A. and Aust S. D., Methods Enzymol., 52, 302-310, 1978).
The tested compounds are solubilized in the culture medium up to the desired concentrations (see tables 1-3). […]
The antiperoxidase activity is measured as % of inhibition of malonyldialdehyde formation.

mast cells = assay: In vivo antidegranulating activity in rat mast cells (substance P induced); design: species or system Sprague Dawley rats; details: s.c. 20 mg/kg; substance P 10^-6 M in auricular pinna; substance P effect taken as 100% degranulation
Experimental: 1. In vivo antidegranulating activity in rat mast cells.
The pharmacological treatment is preceded (20 min. before) by the degranulating stimulus induced by P substance (10^-6 M) injected in the auricular pinna. After 20 minutes from the degranulating stimulus, the animals are sacrificed. Their tissues are then taken (auricular pavilion) for the morphological aspect analysis of the mast cells residing in the connective tissues after fixation and coloration with toluidine blue.
The inhibition level of the mast cells degranulation in the animal tissue treated with the tested compounds in comparison with the animals treated only with the degranulating agent is considered as the parameter of the biological activity.
*the inhibition percentage is calculated considering that the effect of
the substance P is maximum (100% of mast cells degranulation).

[4] = test system: granular cerebellar cells; assay: Protection against 2 mM glutamate cytotoxicity in immature granular cerebellar cell cultures; details: Mus musculus, 24 h, read-out: % Cellular survival
Experimental: The tested compounds are solubilized in DMSO at a concentration of from 1 to 100 μM.

[5] = in vitro, 10 to 50 μM dose/effect relationship for the test compound

Compound: Cc1c(C)c2c(c(C)c1O)CC(CC(=O)NCCO)O2 (stereo not drawn) [Example 1, 2-(2,3-dihydro-5-hydroxy-4,6,7-trimethylbenzofuran)-acetic acid 2 hydroxyethylamide]
- solubility (Solubility; organic solvent or mixture, in ethanol, DMSO, chloroform, read-out: solubility in org. solv.): > 10000 µg/mL
- water solubility (Solubility; water): slightly soluble
- peroxidation inhibition ([1]; 20 μM): 47%
- MDA ([1]; 20 μM): 6.84 nmoles/mg prot.
- peroxidation inhibition ([1]; 50 μM): 80%
- MDA ([1]; 50 μM): 2.5 nmoles/mg prot.
- inhibition of the peroxidation induced by cumene peroxide (in words) [1, 5]: able to inhibit the peroxidation induced by NADPH/Fe^+2 /ADP (a) and by cumene peroxide (b)
- viability at 1 µM (C6 glioma cells): 13%
- viability at 3 µM (C6 glioma cells): 88%
- viability at 10 µM (C6 glioma cells): 89%
- viability at 10 µM ([2]; Rattus norvegicus, 24 h, 10 μM, against 50 μM glutamate, Table 4, control 100, read-out: cell survival): 33%
- viability at 20 µM ([2]; Rattus norvegicus, 24 h, 20 μM, against 50 μM glutamate, Table 4, control 100, read-out: cell survival): 50%
- viability at 50 µM ([2]; Rattus norvegicus, 24 h, 50 μM, against 50 μM glutamate, Table 4, control 100, read-out: cell survival): 85%
- protection against glutamate exogenous neurotoxicity (in words) ([2]; dose-effect relationship): able to protect against the glutamate exogenous neurotoxicity
- peroxidation inhibition ([3]; 10 μM): 21%
- MDA ([3]; 10 μM): 33.5 nmoles/mg prot.
- peroxidation inhibition ([3]; 20 μM): 49%
- MDA ([3]; 20 μM): 21.3 nmoles/mg prot.
- effect compared with the corresponding acid (in words) ([3]; Tab. 1-A and 3 (NADPH/Fe+2/ADP and cumene peroxide)): consistently higher than that of the comparison product namely the corresponding acid
- inhibition of the peroxidation induced by NADPH/Fe+2/ADP (in words) [3, 5]: able to inhibit the peroxidation induced by NADPH/Fe^+2 /ADP (a)
- inhibition % (mast cells degranulation induced by substance P) (mast cells): 19%
- viability at 1 µM [4]: 31%
- viability at 3 µM [4]: 40%
- viability at 10 µM [4]: 94%
